Read-outs that look alike come from different tables or passages of the source.
What was measured:
dopamine transporter (h) = dopamine transporter (h) (Homo sapiens, UniProt Q01959); assay: SafetyScreen44 binding assay dopamine transporter (h); settings: antagonist radioligand, read-out: % Inhibition of Specific Control Binding
Description: (§1) This panel included 38 binding assays and six functional assays of well-established targets and pathways that lead to off-target adverse drug reactions.

beta 2 (h) = beta 2 (h) (Homo sapiens, UniProt P07550); assay: SafetyScreen44 binding assay beta 2 (h); settings: antagonist radioligand, read-out: % Inhibition of Specific Control Binding
Description: as §1

hERG potassium channel = hERG potassium channel (Homo sapiens, UniProt Q12809); assay: SafetyScreen44 binding assay Potassium Channel hERG (human)-[3H] Dofetilide; settings: probe [3H] Dofetilide, read-out: % Inhibition of Specific Control Binding
Chain of hERG potassium channel (Q12809 whole entry): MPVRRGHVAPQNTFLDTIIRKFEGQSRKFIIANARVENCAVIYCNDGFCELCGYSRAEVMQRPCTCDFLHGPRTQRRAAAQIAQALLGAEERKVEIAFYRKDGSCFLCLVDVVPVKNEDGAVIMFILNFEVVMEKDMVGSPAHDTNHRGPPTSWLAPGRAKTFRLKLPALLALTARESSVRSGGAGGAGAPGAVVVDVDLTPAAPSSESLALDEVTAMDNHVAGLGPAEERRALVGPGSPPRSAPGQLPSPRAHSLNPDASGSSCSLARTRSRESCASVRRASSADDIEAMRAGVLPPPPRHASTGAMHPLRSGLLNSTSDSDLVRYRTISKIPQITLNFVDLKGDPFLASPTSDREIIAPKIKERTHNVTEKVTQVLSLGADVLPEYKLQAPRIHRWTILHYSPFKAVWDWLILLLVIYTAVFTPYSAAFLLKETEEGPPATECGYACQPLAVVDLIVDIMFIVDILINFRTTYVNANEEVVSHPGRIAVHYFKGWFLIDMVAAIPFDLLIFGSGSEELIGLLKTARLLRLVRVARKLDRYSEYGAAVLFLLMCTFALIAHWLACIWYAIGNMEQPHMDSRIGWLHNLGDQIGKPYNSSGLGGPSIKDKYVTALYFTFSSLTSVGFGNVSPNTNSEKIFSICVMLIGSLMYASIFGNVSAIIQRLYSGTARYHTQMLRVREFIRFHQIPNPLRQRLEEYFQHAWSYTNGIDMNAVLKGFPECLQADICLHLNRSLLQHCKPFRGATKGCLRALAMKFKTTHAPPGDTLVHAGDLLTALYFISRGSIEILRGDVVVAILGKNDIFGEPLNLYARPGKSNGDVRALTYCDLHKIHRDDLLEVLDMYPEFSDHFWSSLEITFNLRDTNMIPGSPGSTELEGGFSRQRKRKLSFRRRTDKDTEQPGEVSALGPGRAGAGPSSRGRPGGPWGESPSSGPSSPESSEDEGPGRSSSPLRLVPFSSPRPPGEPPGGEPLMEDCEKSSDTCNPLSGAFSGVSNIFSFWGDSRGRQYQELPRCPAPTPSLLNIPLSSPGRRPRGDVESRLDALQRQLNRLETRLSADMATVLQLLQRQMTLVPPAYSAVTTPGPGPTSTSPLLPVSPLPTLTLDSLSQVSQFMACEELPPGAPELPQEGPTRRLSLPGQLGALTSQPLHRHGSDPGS
Description: as §1

beta 1 (h) = beta 1 (h) (Homo sapiens, UniProt P08588); assay: SafetyScreen44 binding assay beta 1 (h); settings: agonist radioligand, read-out: % Inhibition of Specific Control Binding
Description: as §1

V1a (h) = V1a (h) (Homo sapiens, UniProt P37288); assay: SafetyScreen44 binding assay V1a (h); settings: agonist radioligand, read-out: % Inhibition of Specific Control Binding
Chain of V1a (h) (P37288 whole entry): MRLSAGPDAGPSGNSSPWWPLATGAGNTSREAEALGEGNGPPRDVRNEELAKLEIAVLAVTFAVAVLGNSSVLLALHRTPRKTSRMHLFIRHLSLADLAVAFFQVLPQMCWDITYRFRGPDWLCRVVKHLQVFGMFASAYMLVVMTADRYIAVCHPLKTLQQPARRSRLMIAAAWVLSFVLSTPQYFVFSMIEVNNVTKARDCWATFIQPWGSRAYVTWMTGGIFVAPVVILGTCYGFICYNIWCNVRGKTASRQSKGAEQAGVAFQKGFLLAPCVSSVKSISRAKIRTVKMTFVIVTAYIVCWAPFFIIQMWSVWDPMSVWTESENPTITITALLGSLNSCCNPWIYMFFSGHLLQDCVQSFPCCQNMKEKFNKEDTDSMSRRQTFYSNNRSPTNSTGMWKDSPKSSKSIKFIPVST
Description: as §1

[1] = target: eel acetylcholinesterase (AChE) (Electrophorus electricus, UniProt O42275); assay: Eel AChE fluorescence assay (AMPLEX Red kit); format: biochemical; settings: for assay interference test versus enzyme-free H2O2 reaction: parallel dose-response with 5 μM H2O2; for Hill slope, eel AChE dose-response: sixteen-point serial dilution, four-parameter fit
Chain of eel acetylcholinesterase (AChE) (O42275 24-633): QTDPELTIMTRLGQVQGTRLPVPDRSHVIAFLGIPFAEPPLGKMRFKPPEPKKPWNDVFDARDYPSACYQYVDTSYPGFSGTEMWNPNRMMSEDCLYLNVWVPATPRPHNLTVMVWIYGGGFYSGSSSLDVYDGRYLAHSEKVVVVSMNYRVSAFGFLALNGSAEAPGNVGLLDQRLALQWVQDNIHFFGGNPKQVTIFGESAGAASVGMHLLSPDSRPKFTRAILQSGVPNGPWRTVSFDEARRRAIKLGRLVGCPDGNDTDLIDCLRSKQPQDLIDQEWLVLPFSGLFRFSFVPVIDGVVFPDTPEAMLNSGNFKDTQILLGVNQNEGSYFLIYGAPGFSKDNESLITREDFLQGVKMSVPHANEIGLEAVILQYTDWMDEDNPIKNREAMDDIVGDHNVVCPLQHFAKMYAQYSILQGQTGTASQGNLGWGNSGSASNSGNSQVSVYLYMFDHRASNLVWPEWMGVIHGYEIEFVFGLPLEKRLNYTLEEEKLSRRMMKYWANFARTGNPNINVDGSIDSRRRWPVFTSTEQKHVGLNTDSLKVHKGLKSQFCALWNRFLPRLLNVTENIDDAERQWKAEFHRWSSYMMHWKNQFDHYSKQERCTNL
Experimental: Enzymatic reactions consisted of 50 μM acetylcholine, 200 μM AIVIPLEX™ Red reagent, 1 U/mL horseradish peroxidase, 0.1 U/mL choline oxidase and 0.096 U/mL acetylcholinesterase, with 30 1% DMSO. […] Control reactions lacking acetylcholinesterase but containing 5 μM H2O2 in presence of compounds were analyzed at the same wavelength to exclude compounds that display assay interference. Dose-response curves were performed in duplicate.

BZD (central) = assay: SafetyScreen44 binding assay BZD (central); settings: at 1 μM; agonist radioligand
Description: as §1

[2] = system: Ca2+ channel (L, dihydropyridine site); assay: SafetyScreen44 binding assay Ca2+ channel (L, dihydropyridine site); settings: at 1 μM; antagonist radioligand
Description: as §1

delta (DOP) (h) = delta (DOP) (h) (Homo sapiens, UniProt P41143); assay: SafetyScreen44 binding assay delta (DOP) (h); settings: agonist radioligand, read-out: % Inhibition of Specific Control Binding
Description: as §1

MAO-A = MAO-A (Rattus norvegicus, UniProt P21396); assay: SafetyScreen44 binding assay MAO-A; settings: antagonist radioligand, read-out: % Inhibition of Specific Control Binding
Description: as §1

5-HT transporter (h) = 5-HT transporter (h) (Homo sapiens, UniProt P31645); assay: SafetyScreen44 binding assay 5-HT transporter (h); settings: antagonist radioligand, read-out: % Inhibition of Specific Control Binding
Description: as §1

D2S (h) = D2S (h) (Homo sapiens, UniProt P14416); assay: SafetyScreen44 binding assay D2S (h); settings: agonist radioligand, read-out: % Inhibition of Specific Control Binding
Description: as §1

COX1(h) = COX1(h) (Homo sapiens, UniProt P23219); assay: SafetyScreen44 enzyme assay COX1(h); format: biochemical; settings: read-out: % Inhibition of Control Values
Description: as §1

human AChE [3] = target: T1, human AChE (Homo sapiens, UniProt P22303); format: biochemical
T1 sequence (P22303 32-614): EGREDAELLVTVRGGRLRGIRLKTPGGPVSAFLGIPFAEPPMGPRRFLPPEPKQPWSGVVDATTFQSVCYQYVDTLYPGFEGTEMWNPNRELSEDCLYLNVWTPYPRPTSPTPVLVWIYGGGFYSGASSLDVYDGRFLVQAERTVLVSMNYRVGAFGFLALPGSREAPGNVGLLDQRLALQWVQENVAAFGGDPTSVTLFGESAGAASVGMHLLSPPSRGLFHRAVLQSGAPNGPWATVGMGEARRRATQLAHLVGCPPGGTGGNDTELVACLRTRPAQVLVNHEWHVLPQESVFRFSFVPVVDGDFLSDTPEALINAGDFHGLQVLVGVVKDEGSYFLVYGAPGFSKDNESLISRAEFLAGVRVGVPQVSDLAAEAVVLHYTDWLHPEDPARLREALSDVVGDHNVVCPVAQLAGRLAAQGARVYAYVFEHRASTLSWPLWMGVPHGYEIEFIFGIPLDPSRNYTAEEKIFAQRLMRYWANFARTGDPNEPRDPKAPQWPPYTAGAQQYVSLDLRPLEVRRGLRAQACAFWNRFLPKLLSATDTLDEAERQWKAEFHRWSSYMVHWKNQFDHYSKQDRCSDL

5-HT1B (h) = 5-HT1B (h) (Homo sapiens, UniProt P28222); assay: SafetyScreen44 binding assay 5-HT1B (h); settings: antagonist radioligand, read-out: % Inhibition of Specific Control Binding
Description: as §1

alpha 2A (h) = alpha 2A (h) (Homo sapiens, UniProt P08913); assay: SafetyScreen44 binding assay alpha 2A (h); settings: antagonist radioligand, read-out: % Inhibition of Specific Control Binding
Description: as §1

COX2(h) = COX2(h) (Homo sapiens, UniProt P35354); assay: SafetyScreen44 enzyme assay COX2(h); format: biochemical; settings: read-out: % Inhibition of Control Values
Description: as §1

Lck kinase (h) = Lck kinase (h) (Homo sapiens, UniProt P06239); assay: SafetyScreen44 enzyme assay Lck kinase (h); format: biochemical; settings: read-out: % Inhibition of Control Values
Description: as §1

5-HT3 (h) = 5-HT3 (h) (Homo sapiens, UniProt P46098); assay: SafetyScreen44 binding assay 5-HT3 (h); settings: antagonist radioligand, read-out: % Inhibition of Specific Control Binding
Description: as §1

M1 (h) = M1 (h) (Homo sapiens, UniProt P11229); assay: SafetyScreen44 binding assay M1 (h); settings: antagonist radioligand, read-out: % Inhibition of Specific Control Binding
Description: as §1

[4] = target: N neuronal alpha 4beta 2 (h) (Homo sapiens, UniProt P17787+P43681); assay: SafetyScreen44 binding assay N neuronal alpha 4beta 2 (h); settings: agonist radioligand, read-out: % Inhibition of Specific Control Binding
Description: as §1

5-HT2B (h) = 5-HT2B (h) (Homo sapiens, UniProt P41595); assay: SafetyScreen44 binding assay 5-HT2B (h); settings: agonist radioligand, read-out: % Inhibition of Specific Control Binding
Description: as §1

ETA (h) = ETA (h) (Homo sapiens, UniProt P25101); assay: SafetyScreen44 binding assay ETA (h); settings: agonist radioligand, read-out: % Inhibition of Specific Control Binding
Description: as §1

GR (h) = GR (h) (Homo sapiens, UniProt P04150); assay: SafetyScreen44 binding assay GR (h); settings: agonist radioligand, read-out: % Inhibition of Specific Control Binding
Description: as §1

CB2 (h) = CB2 (h) (Homo sapiens, UniProt P34972); assay: SafetyScreen44 binding assay CB2 (h); settings: agonist radioligand, read-out: % Inhibition of Specific Control Binding
Chain of CB2 (h) (P34972 whole entry): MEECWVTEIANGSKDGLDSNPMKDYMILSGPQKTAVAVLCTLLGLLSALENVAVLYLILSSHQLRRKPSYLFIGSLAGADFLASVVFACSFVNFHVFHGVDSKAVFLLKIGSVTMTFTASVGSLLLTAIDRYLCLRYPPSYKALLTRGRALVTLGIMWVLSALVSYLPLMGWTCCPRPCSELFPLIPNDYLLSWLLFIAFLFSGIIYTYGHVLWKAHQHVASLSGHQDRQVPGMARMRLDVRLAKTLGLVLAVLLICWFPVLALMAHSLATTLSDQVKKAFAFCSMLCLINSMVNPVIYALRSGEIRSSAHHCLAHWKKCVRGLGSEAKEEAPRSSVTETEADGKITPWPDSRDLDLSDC
Description: as §1

acetylcholinesterase (h) = acetylcholinesterase (h) (Homo sapiens, UniProt P22303); assay: SafetyScreen44 enzyme assay acetylcholinesterase (h); format: biochemical; settings: at 1 μM
Chain of acetylcholinesterase (h) (P22303 32-614): as the sequence (P22303 32-614) above
Description: as §1

human AChE [5] = target: T1, human AChE; format: biochemical; remark: listed apart in the source
Na+ channel (site 2) = assay: SafetyScreen44 binding assay Na+ channel (site 2); settings: at 1 μM; antagonist radioligand
Description: as §1

kappa (h) (KOP) = kappa (h) (KOP) (Homo sapiens, UniProt P41145); assay: SafetyScreen44 binding assay kappa (h) (KOP); settings: agonist radioligand, read-out: % Inhibition of Specific Control Binding
Description: as §1

5-HT1A (h) = 5-HT1A (h) (Homo sapiens, UniProt P08908); assay: SafetyScreen44 binding assay 5-HT1A (h); settings: agonist radioligand, read-out: % Inhibition of Specific Control Binding
Description: as §1

CCK1 (CCKA) (h) = CCK1 (CCKA) (h) (Homo sapiens, UniProt P32238); assay: SafetyScreen44 binding assay CCK1 (CCKA) (h); settings: agonist radioligand, read-out: % Inhibition of Specific Control Binding
Description: as §1

mu (MOP) (h) = mu (MOP) (h) (Homo sapiens, UniProt P35372); assay: SafetyScreen44 binding assay mu (MOP) (h); settings: agonist radioligand, read-out: % Inhibition of Specific Control Binding
Description: as §1

CB1 (h) = CB1 (h) (Homo sapiens, UniProt P21554); assay: SafetyScreen44 binding assay CB1 (h); settings: agonist radioligand, read-out: % Inhibition of Specific Control Binding
Description: as §1

M2 (h) = M2 (h) (Homo sapiens, UniProt P08172); assay: SafetyScreen44 binding assay M2 (h); settings: antagonist radioligand, read-out: % Inhibition of Specific Control Binding
Description: as §1

A2A (h) = A2A (h) (Homo sapiens, UniProt P29274); assay: SafetyScreen44 binding assay A2A (h); settings: agonist radioligand, read-out: % Inhibition of Specific Control Binding
Description: as §1

D1 (h) = D1 (h) (Homo sapiens, UniProt P21728); assay: SafetyScreen44 binding assay D1 (h); settings: antagonist radioligand, read-out: % Inhibition of Specific Control Binding
Description: as §1

NMDA = assay: SafetyScreen44 binding assay NMDA; settings: at 1 μM; antagonist radioligand
Description: as §1

H2 (h) = H2 (h) (Homo sapiens, UniProt P25021); assay: SafetyScreen44 binding assay H2 (h); settings: antagonist radioligand, read-out: % Inhibition of Specific Control Binding
Description: as §1

KV channel = assay: SafetyScreen44 binding assay KV channel; settings: at 1 μM; antagonist radioligand
Description: as §1

5-HT2A (h) = 5-HT2A (h) (Homo sapiens, UniProt P28223); assay: SafetyScreen44 binding assay 5-HT2A (h); settings: agonist radioligand, read-out: % Inhibition of Specific Control Binding
Description: as §1

H1 (h) = H1 (h) (Homo sapiens, UniProt P35367); assay: SafetyScreen44 binding assay H1 (h); settings: antagonist radioligand, read-out: % Inhibition of Specific Control Binding
Description: as §1

alpha 1A (h) = alpha 1A (h) (Homo sapiens, UniProt P35348); assay: SafetyScreen44 binding assay alpha 1A (h); settings: antagonist radioligand, read-out: % Inhibition of Specific Control Binding
Chain of alpha 1A (h) (P35348 whole entry): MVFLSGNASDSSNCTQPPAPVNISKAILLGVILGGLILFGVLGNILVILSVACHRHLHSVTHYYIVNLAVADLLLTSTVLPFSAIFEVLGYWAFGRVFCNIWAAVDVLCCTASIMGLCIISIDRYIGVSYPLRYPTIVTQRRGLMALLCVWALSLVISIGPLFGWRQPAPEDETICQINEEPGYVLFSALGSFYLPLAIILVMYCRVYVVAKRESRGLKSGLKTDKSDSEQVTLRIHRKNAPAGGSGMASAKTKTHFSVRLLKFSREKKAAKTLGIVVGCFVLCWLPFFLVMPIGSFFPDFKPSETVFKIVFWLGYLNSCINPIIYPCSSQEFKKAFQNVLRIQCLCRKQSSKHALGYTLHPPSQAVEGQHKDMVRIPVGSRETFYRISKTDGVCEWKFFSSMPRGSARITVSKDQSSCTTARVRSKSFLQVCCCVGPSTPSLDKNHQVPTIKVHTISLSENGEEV
Description: as §1

PDE3A (h) = PDE3A (h) (Homo sapiens, UniProt Q14432); assay: SafetyScreen44 enzyme assay PDE3A (h); format: biochemical; settings: read-out: % Inhibition of Control Values
Description: as §1

[6] = target: human butyrylcholinesterase (BuChE) (Homo sapiens, UniProt P06276); assay: Human BuChE colorimetric activity kit assay; format: biochemical
Chain of human butyrylcholinesterase (BuChE) (P06276 29-602): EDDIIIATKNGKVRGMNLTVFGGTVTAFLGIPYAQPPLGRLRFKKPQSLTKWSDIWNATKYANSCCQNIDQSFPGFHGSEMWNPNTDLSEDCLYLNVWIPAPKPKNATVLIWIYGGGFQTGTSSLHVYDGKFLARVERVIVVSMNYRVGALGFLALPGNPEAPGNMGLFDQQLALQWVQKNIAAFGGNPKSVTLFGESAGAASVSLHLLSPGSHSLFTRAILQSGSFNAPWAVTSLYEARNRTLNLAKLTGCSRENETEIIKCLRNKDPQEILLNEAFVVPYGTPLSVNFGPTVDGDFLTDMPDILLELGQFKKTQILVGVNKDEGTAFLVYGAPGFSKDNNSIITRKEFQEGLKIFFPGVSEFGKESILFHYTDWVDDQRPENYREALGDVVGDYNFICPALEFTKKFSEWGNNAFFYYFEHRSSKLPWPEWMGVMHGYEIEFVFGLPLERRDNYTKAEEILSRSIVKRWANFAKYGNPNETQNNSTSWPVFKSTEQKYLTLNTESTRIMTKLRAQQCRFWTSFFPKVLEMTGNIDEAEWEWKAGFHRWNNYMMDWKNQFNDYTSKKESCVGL
Experimental: Reactions were performed in 384-well plates (781162, Greiner BioOne, GmbH, Kremsmunster, Austria) with 1% DMSO, according to the manufacturer's instructions with a few modifications. Compounds were incubated with enzyme for 30 minutes at room temperature before addition of substrate. Total volume of the reaction was 100 μL, we use 5 μL enzyme and kinetic reactions were performed at 30° C. for 60 minutes using a microplate reader sold under the tradename SPECTRAMAX™ iD5 (Molecular Devices, San Jose, California, United States of America) and an absorbance of 412 nm. Percent activity was calculated by calculating the slope of each reaction as stated above and comparing the positive control (PC) to sample (S): % Relative activity=SlopeS/SlopePCx100. We evaluated if assay reagents could interfere with the absorbance by adding compound or DMSO to a 150 μM solution of 5-thio-2-nitrobenzoic acid and measuring at […].

PDE4D2 (h) = PDE4D2 (h) (Homo sapiens, UniProt Q08499); assay: SafetyScreen44 enzyme assay PDE4D2 (h); format: biochemical; settings: read-out: % Inhibition of Control Values
Description: as §1

[7] = target: norepinephrine transporter (h) (Homo sapiens, UniProt P23975); assay: SafetyScreen44 binding assay norepinephrine transporter (h); settings: antagonist radioligand, read-out: % Inhibition of Specific Control Binding
Description: as §1

M3 (h) = M3 (h) (Homo sapiens, UniProt P20309); assay: SafetyScreen44 binding assay M3 (h); settings: antagonist radioligand, read-out: % Inhibition of Specific Control Binding
Description: as §1

Chain of dopamine transporter (h) (Q01959 whole entry): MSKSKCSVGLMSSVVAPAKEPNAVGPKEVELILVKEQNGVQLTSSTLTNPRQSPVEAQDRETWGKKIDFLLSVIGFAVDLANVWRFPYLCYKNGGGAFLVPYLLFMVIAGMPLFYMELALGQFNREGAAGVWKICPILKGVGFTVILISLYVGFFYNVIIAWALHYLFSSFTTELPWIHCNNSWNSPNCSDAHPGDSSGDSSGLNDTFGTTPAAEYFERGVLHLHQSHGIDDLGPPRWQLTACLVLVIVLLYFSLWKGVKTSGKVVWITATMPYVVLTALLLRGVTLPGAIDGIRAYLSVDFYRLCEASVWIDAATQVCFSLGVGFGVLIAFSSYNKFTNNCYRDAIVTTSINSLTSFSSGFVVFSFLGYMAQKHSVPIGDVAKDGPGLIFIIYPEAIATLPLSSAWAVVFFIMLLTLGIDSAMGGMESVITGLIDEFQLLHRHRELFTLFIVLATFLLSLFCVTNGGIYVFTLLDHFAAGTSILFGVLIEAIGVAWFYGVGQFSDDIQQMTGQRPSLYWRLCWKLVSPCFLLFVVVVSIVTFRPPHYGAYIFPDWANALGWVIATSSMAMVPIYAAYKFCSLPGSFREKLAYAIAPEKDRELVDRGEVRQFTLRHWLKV

## CCN(CC)CCOc1ccc2c(c1)C(=O)c1cc(OCCN(CC)CC)ccc1-2 [tilorone]
Dopamine transporter (h)
  inhibition at 1 µM: -9%
Beta 2 (h)
  inhibition at 1 µM: -6%
hERG potassium channel
  inhibition at 1 µM: -4%
Beta 1 (h)
  inhibition at 1 µM: 5%
V1a (h)
  inhibition at 1 µM: -1%
[1]; dose-response, 1% DMSO
  IC50: 14.4 nM
[1]; eel AChE activity, at 20 μM, read-out: Percentage inhibition
  inhibition at 20 µM: 103%
[1]
  assay interference test versus enzyme-free H2O2 reaction: likely represent true inhibition of the enzyme
  Hill slope, eel AChE dose-response: 0.62
[1]; read-out: inhibition of enzyme activity compared to DMSO control (screen)
  inhibition at 20 µM: ≥ 50%
BZD (central)
  % Inhibition of Specific Control Binding: −9%
[2]
  % Inhibition of Specific Control Binding: 4%
Delta (DOP) (h)
  inhibition at 1 µM: 0%
MAO-A
  inhibition at 1 µM: 3%
5-HT transporter (h)
  inhibition at 1 µM: 44%
D2S (h)
  inhibition at 1 µM: 1%
COX1(h)
  inhibition at 1 µM: -17%
Human AChE [3]; % Inhibition of Control Values
  Bottom of curve, Eurofins human AChE: −7
  Top of curve, Eurofins human AChE: 99
Human AChE [3]; third-party photometric assay, read-out: IC50 against human AChE (Eurofins Discovery)
  IC50: 56 nM
Human AChE [3]; two-fold dilution from 5 μM
  Hill slope, Eurofins human AChE curve: 1.0
5-HT1B (h)
  inhibition at 1 µM: 21%
Alpha 2A (h)
  inhibition at 1 µM: 0%
COX2(h)
  inhibition at 1 µM: -1%
Lck kinase (h)
  inhibition at 1 µM: 13%
5-HT3 (h)
  inhibition at 1 µM: 6%
M1 (h)
  inhibition at 1 µM: 28%
[4]
  inhibition at 1 µM: 0%
5-HT2B (h)
  inhibition at 1 µM: -9%
ETA (h)
  inhibition at 1 µM: 5%
GR (h)
  inhibition at 1 µM: -5%
CB2 (h)
  inhibition at 1 µM: -16%
Acetylcholinesterase (h)
  % Inhibition of Control Values: 92%
Human AChE [5]; average of the colorimetric and Eurofins values, read-out: average IC50 for human AChE
  IC50: 64.6 nM
Human AChE [5]; colorimetric kit, n=2, read-out: IC50 against human AChE (colorimetric assay)
  IC50: 73.3 nM
Human AChE [5]; two-fold 16-point dilution from 20 μM
  Hill slope, human AChE colorimetric dose-response: 0.84
Na+ channel (site 2)
  % Inhibition of Specific Control Binding: 1%
Kappa (h) (KOP)
  inhibition at 1 µM: 4%
5-HT1A (h)
  inhibition at 1 µM: 12%
CCK1 (CCKA) (h)
  inhibition at 1 µM: -5%
Mu (MOP) (h)
  inhibition at 1 µM: -4%
CB1 (h)
  inhibition at 1 µM: 0%
M2 (h)
  inhibition at 1 µM: 26%
A2A (h)
  inhibition at 1 µM: -4%
D1 (h)
  inhibition at 1 µM: -10%
NMDA
  % Inhibition of Specific Control Binding: −10%
H2 (h)
  inhibition at 1 µM: -11%
KV channel
  % Inhibition of Specific Control Binding: 0%
5-HT2A (h)
  inhibition at 1 µM: 25%
H1 (h)
  inhibition at 1 µM: -6%
Alpha 1A (h)
  inhibition at 1 µM: 26%
PDE3A (h)
  inhibition at 1 µM: 2%
[6]
  IC50: > 50 nM
[6]; at 100 μM, single point, read-out: inhibition of human BChE
  inhibition at 100 µM: 50%
PDE4D2 (h)
  inhibition at 1 µM: -15%
[7]
  inhibition at 1 µM: 14%
M3 (h)
  inhibition at 1 µM: 17%

## agelasine
[1]
  assay interference test versus enzyme-free H2O2 reaction: likely represent true inhibition of the enzyme
  Hill slope, eel AChE dose-response: 0.79
